Measurements from patent US20050090529A1, “3,5 Disubstituted indazole compounds with nitrogen-bearing 5-membered heterocycles, pharmaceutical compositions, and methods for mediating or inhibiting cell proliferation” (PFIZER INC, priority 2003, published 2005).

System: Cyclin-dependent kinase
Assay: Cyclin-dependent kinase inhibition, % inhibition at 10 nM (library Examples 99-270)
Type: biochemical
Conditions: 10 nM compound
Description: Cyclin-dependent kinase activity was measured by quantifying the enzyme-catalyzed, time-dependent incorporation of radioactive phosphate from [^32P]ATP or [^33P]ATP into a protein substrate. Unless noted otherwise, assays were performed in 96-well plates in a total volume of 50 μL, in the presence of 10 mM HEPES (N-[2-hydroxyethyl]piperazine-N′-[2-ethanesulfonic acid]) (pH 7.4), 10 mM MgCl2, 25 μM adenosine triphosphate (ATP), 1 mg/mL ovalbumin, 5 μg/mL leupeptin, 1 mM dithiothreitol, 10 mM beta-glycerophosphate, 0.1 mM sodium vanadate, 1 mM sodium fluoride, 2.5 mM ethylene glycol-bis(β-aminoethyl ethKer)-N,N,N′N′-tetraacetic acid (EGTA), 2% (v/v) dimethylsulfoxide, and 0.03-0.4 μCi [^32/33P]ATP per reaction. Reactions were initiated with enzyme, incubated at 30° C., and terminated after 20 minutes by the addition of ethylenediaminetetraacetic acid (EDTA) to 250 mM. The phosphorylated substrate was then captured on a nitrocellulose or phosphocellulose membrane using a 96-well filtration manifold, and unincorporated radioactivity was removed by repeated washing with 0.85% phosphoric acid. Radioactivity was quantified by exposing the dried membranes to a phosphorimager.
Results of assays performed on compounds, which include the specific examples described above are provided in Examples 99-274 above, and in Table 1 below. Unless indicated otherwise in a particular entry, the units and assays used are as indicated in the applicable column of the table.

| % Inhib @ 10 nM [%] | Structure (SMILES) |
| --- | --- |
| 69 | CCNCc1cncc(-c2ccc3[nH]nc(-c4ncc(C(=O)N5CCc6cc(OC)c(OC)cc6C5)[nH]4)c3c2)c1C [Example 121, {[5-(3-{5-[(6,7-dimethoxy-3,4-dihydroisoquinolin-2(1H)-yl)carbonyl}-1H-imidazol-2-yl}-1H-indazol-5-yl)-4-methylpyridin-3-yl]methyl)ethylamine] |
| 30 | CCNCc1cncc(-c2ccc3[nH]nc(-c4ncc(C(=O)N(C)CCCN(C)C)[nH]4)c3c2)c1C [Example 122] |
| 54 | CCNCc1cncc(-c2ccc3[nH]nc(-c4ncc(C(=O)N(CCN(C)C)Cc5ccccc5)[nH]4)c3c2)c1C [Example 123, N-benzyl-N-[2-(dimethylamino)ethyl]-2-(5-{5-[(ethylamino)methyl]-4-methylpyridin-3-yl}-1H-indazol-3-yl)-1H-imidazale-5-carboxamide] |
| 56 | CCNCc1cncc(-c2ccc3[nH]nc(-c4ncc(C(=O)N(CCO)Cc5ccccc5)[nH]4)c3c2)c1C [Example 124, N-benzyl-2-(5-{5-[(ethylamino)methyl]-4-methylpyridin-3-yl}-1H-indazol-3-yl)-N-(2-hydroxyethyl)-1H-imidazole-5-carboxamide] |
| 40 | CCNCc1cncc(-c2ccc3[nH]nc(-c4ncc(C(=O)N5CCN(CCO)CC5)[nH]4)c3c2)c1C [Example 125, 2-(4-{[2-(5-{5-[(ethylamino)methyl]-4-methylpyridin-3-yl}-1H-indazol-3-yl)-1H-imidazol-5-yl]carbonyl}piperazin-1-yl)ethanol] |
| 89 | CCNCc1cncc(-c2ccc3[nH]nc(-c4ncc(C(=O)NC5C6CC7CC(C6)CC5C7)[nH]4)c3c2)c1C (stereo not shown) [Example 126, N-2-adamantyl-2-(5-{5-[(ethylamino)methyl]-4-methylpyridin-3-yl}-1H-indazol-3-yl)-1H-imidazole-5-carboxamide] |
| 26 | CCNCc1cncc(-c2ccc3[nH]nc(-c4ncc(C(=O)N5CCN(CC(=O)N6CCOCC6)CC5)[nH]4)c3c2)c1C [Example 127, ethyl({4-methyl-5-[3-(5-{[4-(2-morpholin-4-yl-2-oxoethyl)piperazin-1-yl]carbonyl}-1H-imidazol-2-yl)-1H-indazol-5-yl]pyridin-3-yl}methyl)amine] |
| 55 | CCNCc1cncc(-c2ccc3[nH]nc(-c4ncc(C(=O)N5CCC(NC(C)=O)C5)[nH]4)c3c2)c1C (stereo not shown) [Example 129] |
| 28 | CCNCc1cncc(-c2ccc3[nH]nc(-c4ncc(C(=O)NCCCN5CCCC5=O)[nH]4)c3c2)c1C [Example 130] |
| 57 | CCNCc1cncc(-c2ccc3[nH]nc(-c4ncc(C(=O)NCCC5=CCCCC5)[nH]4)c3c2)c1C [Example 131] |
| 80 | CCNCc1cncc(-c2ccc3[nH]nc(-c4ncc(C(=O)N(CC)CC)[nH]4)c3c2)c1C [Example 132, N,N-diethyl-2-(5-{5-[(ethylamino)methyl]-4-methylpyridin-3-yl}-1H-indazol-3-yl)-1H-imidazxole-5-carboxamide] |
| 67 | CCNCc1cncc(-c2ccc3[nH]nc(-c4ncc(C(=O)N5CCN(c6c(C)cccc6C)CC5)[nH]4)c3c2)c1C [Example 133] |

The next lines start with the compound.

| Structure (SMILES) | % Inhib @ 10 nM [%] |
| --- | --- |
| CCNCc1cncc(-c2ccc3[nH]nc(-c4ncc(C(=O)NCCCn5ccnc5)[nH]4)c3c2)c1C [Example 99, 2-(5-{5-[(ethylamino)methy]-4-methylpyridin-3-yl}-1H-indazol-3-yl)-N-[3-(1H-imidazol-1-yL)propyl]-1H-imidazole-5-carboxamide] | 39 |
| CCNCc1cncc(-c2ccc3[nH]nc(-c4ncc(C(=O)NC(C)CO)[nH]4)c3c2)c1C (stereo not shown) [Example 100] | 65 |
| CCNCc1cncc(-c2ccc3[nH]nc(-c4ncc(C(=O)NCc5cccnc5)[nH]4)c3c2)c1C [Example 101] | 54 |
| CCNCc1cncc(-c2ccc3[nH]nc(-c4ncc(C(=O)NCCc5ccccn5)[nH]4)c3c2)c1C [Example 102] | 81 |
| CCNCc1cncc(-c2ccc3[nH]nc(-c4ncc(C(=O)NCCN5CCOCC5)[nH]4)c3c2)c1C [Example 103, 2-(5-{5-[(ethylamino)methyl]-4-methylpyridin-3-yl}-1H-indazol-3-yl)-N-(2-morpholin-4-ylethyl)-1H-imidazole-5-carboxamide] | 40 |
| CCNCc1cncc(-c2ccc3[nH]nc(-c4ncc(C(=O)NCCOCCO)[nH]4)c3c2)c1C [Example 104] | 54 |
| CCNCc1cncc(-c2ccc3[nH]nc(-c4ncc(C(=O)N[C@H](c5ccccc5)[C@@H](O)c5ccccc5)[nH]4)c3c2)c1C [Example 105, 2-(5-{5-[(ethylamino)methyl]-4-methylpyridin-3-yl}-1H-indazol-3-yl)-N-[(1R,2S)-2-hydroxy-1,2-diphenylethyl]-1H-imidazole-5-carboxamide] | 74 |
| CCNCc1cncc(-c2ccc3[nH]nc(-c4ncc(C(=O)NCc5ccccc5OC)[nH]4)c3c2)c1C [Example 106] | 78 |
| CCNCc1cncc(-c2ccc3[nH]nc(-c4ncc(C(=O)N5CCC(n6c(=O)[nH]c7ccccc76)CC5)[nH]4)c3c2)c1C [Example 107] | 59 |
| CCNCc1cncc(-c2ccc3[nH]nc(-c4ncc(C(=O)N[C@H](Cc5ccccc5)C(N)=O)[nH]4)c3c2)c1C [Example 108, N-{[2-(5-{5-[(ethylamino)methyl]-4-methylpyridin-3-yl}-1H-indazol-3-yl)-1H-imidazol-5-yl]carbonyl}-D-phenylalaninamide] | 57 |
| CCNCc1cncc(-c2ccc3[nH]nc(-c4ncc(C(=O)NCC(N)=O)[nH]4)c3c2)c1C [Example 109, N-(2-amino-2-oxoethyl)-2-(5-{5-[(ethylamino)methyl]-4-methylpyridin-3-yl}-1H-indazol-3-yl)-1H-imidazole-5-carboxamide] | 69 |
| CCNCc1cncc(-c2ccc3[nH]nc(-c4ncc(C(=O)NCC5CCCO5)[nH]4)c3c2)c1C (stereo not shown) [Example 110, 2-(5-{5-[(ethylamino)methyl]-4-methylpyridin-3-yl}-1H-indazol-3-yl)-N-(tetrahydrofuran-2-ylmethyl)-1H-imidazole-5-carboxamide] | 66 |
| CCNCc1cncc(-c2ccc3[nH]nc(-c4ncc(C(=O)N[C@@H](CO)[C@@H](O)c5ccc(SC)cc5)[nH]4)c3c2)c1C [Example 111, 2-(5-{5-[(ethylamino)methyl]-4-methylpyridin-3-yl}-1H-indazol-3-yl)-N-{(1S,2S)-2-hydroxy-1-(hydroxymethyl)-2-[4-(methylthio)phenyl]ethyl}-1H-imidazole-5-carboxamide] | 73 |
| CCNCc1cncc(-c2ccc3[nH]nc(-c4ncc(C(=O)N5CCC(O)(c6ccccc6)CC5)[nH]4)c3c2)c1C [Example 112, 1-{[2-(5-{5-[(ethylamino)methyl]-4-methylpyridin-3-yl}-1H-indazol-3-yl)-1H-imidazol-5-yl]carbonyl}-4-phenylpiperidin-4-ol] | 80 |
| CCNCc1cncc(-c2ccc3[nH]nc(-c4ncc(C(=O)N5CCC(C#N)(c6ccccc6)CC5)[nH]4)c3c2)c1C [Example 113, 1-{[2-(5-{5-[(ethylamino)methyl]-4-methylpyridin-3-yl}-1H-indazol-3-yl)-1H-imidazol-5-yl]carbonyl}-4-phenylpiperidine-4-carbonitrile] | 61 |
| CCNCc1cncc(-c2ccc3[nH]nc(-c4ncc(C(=O)NCCc5cccc(OC)c5)[nH]4)c3c2)c1C [Example 114, 2-(5-{5-[(ethylamino)methyl]-4-methylpyridin-3-yl}-1H-indazol-3-yl)-N-[2-(3-methoxyphenyl)ethyl]-1H-imidazole-5-carboxamide] | 64 |
| CCNCc1cncc(-c2ccc3[nH]nc(-c4ncc(C(=O)N5CCN(c6ccccn6)CC5)[nH]4)c3c2)c1C [Example 115, ethyl{[4-methyl-5-(3-{5-[(4-pyridin-2-piperazin-1-yl)carbonyl]-1H-imidazol-yl}-1H-indazol-5-yl)pyridin-3-yl]methyl}amine] | 72 |
| CCNCc1cncc(-c2ccc3[nH]nc(-c4ncc(C(=O)N5CCN(C(C)=O)CC5)[nH]4)c3c2)c1C [Example 116] | 66 |
| CCNCc1cncc(-c2ccc3[nH]nc(-c4ncc(C(=O)N5CCN(Cc6ccccc6)CC5)[nH]4)c3c2)c1C [Example 117] | 72 |
| CCNCc1cncc(-c2ccc3[nH]nc(-c4ncc(C(=O)N5CCN(CC(=O)NC(C)C)CC5)[nH]4)c3c2)c1C [Example 118, 2-(4-{[2-(5-{5-[(ethylamino)methyl]-4-methylpyridin-3-yl}-1H-indazol-3-yl)-1H-imidazol-5-yl]carbonyl}piperazin-1-yl)-N-isopropylacetamide] | 44 |
| CCNCc1cncc(-c2ccc3[nH]nc(-c4ncc(C(=O)N5CCCN(C)CC5)[nH]4)c3c2)c1C [Example 119, ethyl{(4-methyl-5-(3-{5-[(4-methyl-1,4-diazepan-1-yl)carbonyl]-1H-imidazol-2-yl}-1H-indazol-5-yl)pyridin-3-yl]methyl}amine] | 38 |
| CCNCc1cncc(-c2ccc3[nH]nc(-c4ncc(C(=O)NCCc5c[nH]c6cc(OC)ccc56)[nH]4)c3c2)c1C [Example 120] | 45 |
